Assay results as given in patent publication US8153142B2, “Skin treatment composition” (Shiseido Co., Ltd., priority 2001, dated 2012).

Legend:
[1] = test system: human skin (forearms of 10 panelists); assay: Conductance measuring test; type: in vivo; conditions: for Conductance 30 min-after / Conductance 60 min-after / Conductance 120 min-after: 10% aqueous solution; for Conductance 30 min-after: 30 minutes after application; for Conductance 60 min-after: 60 minutes after application; for Conductance 120 min-after: 120 minutes after application
Procedure: (i) Conductance Measuring Test
Using forearms of 10 panelists, the skin conductance was measured before application and for 30 minutes, 60 minutes and 120 minutes after application, and the moisturizing effect was evaluated from a change rate thereof. The change rate of the skin conductance is calculated by the following equation (II): Conductance change rate=[…].
The change rate can be used for study of the influences on a water-absorbing property and a moisture retaining ability of a keratin layer. When this change rate is small, there is increase in the moisture in a keratin layer, thus, it can be evaluated that the moisturizing effect is high.
The evaluation criteria of conductance measuring test is as follows: • {circumflex over (◯)}: The average of conductance change rate of 10 panelists is not less than 0 and less than 0.1 • ◯: The average of conductance change rate of 10 panelists is not less than 0.1 and less than 0.2 • Δ: The average of conductance change rate of 10 panelists is not less than 0.2 and less than 0.5 • X: The average of conductance change rate of 10 panelists is not less than 0.5

[2] = test system: human skin (medial parts of brachiums); assay: Evaluation No.(7): Skin Stimulation Test B (smart feeling); type: in vivo
Procedure: (viii) Evaluation No.(7): Skin Stimulation Test B
A smart feeling when a sample applied on medial parts of brachiums of 10 panelists was graded based on the following criteria and, thereafter, an average was calculated: • 0: No smart feeling is perceived. • 1: Slight smart feeling or redness is perceived. • 2: Smart feeling or redness is perceived. • 3: Smart feeling and redness are perceived.
(§1) The evaluation criteria of skin stimulation test B is as follows: • {circumflex over (◯)}: The average of 10 panelists is not less than 0 and less than 0.1 • ◯: The average of 10 panelists is not less than 0.1 and less than 0.15 • Δ: The average of 10 panelists is not less than 0.15 and less than 0.2 • X: The average of 10 panelists is not less than 0.2

human skin [3] = assay: Evaluation No.(8): Refreshing Effect Durability; type: in vivo; conditions: for Refreshing feeling (8): basic composition B
Procedure: (ix) Evaluation No.(8): Refreshing Effect Durability A presence or absence of refreshing feeling for 120 minutes after use was evaluated by 10 special panelists. The evaluation criteria is as follows: • {circumflex over (◯)}: Not less than 8 special panelists recognized that there was refreshing feeling durability. • ◯: Not less than 6 and less than 8 special panelists recognized that there was refreshing feeling durability. • Δ: Not less than 3 and less than 6 special panelists recognized that there was refreshing feeling durability. • X: Less than 3 special panelists recognized that there was refreshing feeling durability.

human skin [4] = assay: Evaluation No.(3): Moisturizing Effect Feeling; type: in vivo; conditions: compound 5% by weight in basic composition A
Procedure: (iv) Evaluation No.(3): Moisturizing Effect Feeling Practical test on the presence or absence of the moisturizing effect feeling for 120 minutes after use was performed by using 10 special panelists. The evaluation criteria is as follows: • {circumflex over (◯)}: Not less than 8 special panelists recognized that there was the moisturizing effect feeling. • ◯: Not less than 6 and less than 8 special panelists recognized that there was the moisturizing effect feeling. • Δ: Not less than 3 and less than 6 special panelists recognized that there was the moisturizing effect feeling. • X: Less than 3 special panelists recognized that there was the moisturizing effect feeling.

rough skin on cheek = assay: Evaluation No.(4): Rough Skin Improving Effect Test; type: in vivo, human; conditions: compound 5% by weight in basic composition A
Procedure: (v) Evaluation No.(4): Rough Skin Improving Effect Test A rough skin improving effect test was performed by using 10 panelists having rough skin on cheek. According to a test schedule, different skin lotions were applied on left and right cheeks for 1 week, and the effect was determined on the next day after the last day of the test period. The evaluation criteria is as follows: • {circumflex over (◯)}: Not less than 8 panelists recognized that the rough skin was improved. • ◯: Not less than 6 and less than 8 panelists recognized that the rough skin was improved. • Δ: Not less than 3 and less than 6 panelists recognized that the rough skin was improved. • X: Less than 3 panelists recognized that the rough skin was improved.

[5] = test system: human skin (medial parts of brachiums); assay: Evaluation No.(5): Skin Stimulation Test A (occluding patch); type: in vivo; conditions: compound 5% by weight in basic composition A
Procedure: (iv) Evaluation No.(5): Skin Stimulation Test A
Occluding patch was performed on medial parts of brachiums of 10 panelists for 24 hours and, thereafter, an average was calculated based on the following criteria: • 0: No abnormality is perceived. • 1: Slight redness is perceived. • 2: Redness is perceived. • 3: Redness and papula are perceived.
as §1, with “A” for “B”

CC(O)CCO (stereo not drawn) [1,3-Butylene glycol]
Conductance 30 min-after [1]: Δ (The average of conductance change rate of 10 panelists is not less than 0.2 and less than 0.5)
Conductance 60 min-after [1]: Δ (The average of conductance change rate of 10 panelists is not less than 0.2 and less than 0.5)
Conductance 120 min-after [1]: Δ (The average of conductance change rate of 10 panelists is not less than 0.2 and less than 0.5)

OCC(O)CO [Glycerin]
Conductance 30 min-after [1]: ⊚ (The average of conductance change rate of 10 panelists is not less than 0 and less than 0.1)
Conductance 60 min-after [1]: ◯ (The average of conductance change rate of 10 panelists is not less than 0.1 and less than 0.2)
Conductance 120 min-after [1]: ◯ (The average of conductance change rate of 10 panelists is not less than 0.1 and less than 0.2)
Evaluation in conductance measuring (120 min after) ([1]; Table 7, 5% alone in ion-exchange water 95%): Δ (The average of conductance change rate of 10 panelists is not less than 0.2 and less than 0.5)
Stimulation B (7) ([2]; Table 11, tested compound 5.0 wt % in basic composition B (L-menthol 0.1)): Δ (The average of 10 panelists is not less than 0.15 and less than 0.2)
Refreshing feeling durability (8) (human skin [3]; Table 11, tested compound 5.0 wt % in basic composition B (L-menthol 0.1), 120 minutes after use): X (Less than 3 special panelists recognized that there was refreshing feeling durability.)

Polyoxyethylene (10) polyoxypropylene (10) dimethyl ether [Compound 2]
Moisturizing Evol. No. (3) (human skin [4]; Table 2, 120 minutes after use): ⊚ (Not less than 8 special panelists recognized that there was the moisturizing effect feeling.)
Evaluation (3) moisturizing effect feeling (human skin [4]; Table 4): ⊚ (Not less than 8 special panelists recognized that there was the moisturizing effect feeling.)
Rough skin Evol. No. (4) (rough skin on cheek; Table 2, applied 1 week): ⊚ (Not less than 8 panelists recognized that the rough skin was improved.)
Evaluation (4) rough skin improving effect (rough skin on cheek; Table 4): ⊚ (Not less than 8 panelists recognized that the rough skin was improved.)
Stimulation A Evol. No. (5) ([5]; Table 2, occluding patch 24 hours): ⊚ (The average of 10 panelists is not less than 0 and less than 0.1)
Evaluation (5) skin stimulation A ([5]; Table 4): ⊚ (The average of 10 panelists is not less than 0 and less than 0.1)
Stimulation B (7) ([2]; Table 12, basic composition B, tested compound 5.0 wt %): ⊚ (The average of 10 panelists is not less than 0 and less than 0.1)
Stimulation B (7) ([2]; Table 13, Y/X study, basic composition B): ⊚ (The average of 10 panelists is not less than 0 and less than 0.1)
Stimulation B (7) ([2]; Table 14, basic composition B, tested compound 5.0 wt %): ⊚ (The average of 10 panelists is not less than 0 and less than 0.1)
Refreshing feeling (8) (human skin [3]; Table 12, tested compound 5.0 wt %): ⊚ (Not less than 8 special panelists recognized that there was refreshing feeling durability.)
Refreshing feeling (8) (human skin [3]; Table 13, Y/X study): ⊚ (Not less than 8 special panelists recognized that there was refreshing feeling durability.)
Refreshing feeling (8) (human skin [3]; Table 14, tested compound 5.0 wt %): ⊚ (Not less than 8 special panelists recognized that there was refreshing feeling durability.)
